Among the data in PubChem BioAssay (NCI) are TGI and GI50 values, retold here.

Some test systems named below: SNB-75 CNS; ACHN renal; SK-MEL-2 melanoma; UACC-62 melanoma; SK-MEL-28 melanoma; MDA-MB-231 breast; SF-295 CNS; RXF 393 renal; HL-60(TB) leukemia; HT29 colon.
Common to all, as to experiment: NCI anticancer screen, dose series, 48 h

Where “and” joins values, the source holds several entries; their conditions need not be identical. Equal entries are not always repeated.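 Tested at 5 concentrations; 48 h exposure; 96-well plates; endpoints linearly interpolated, else capped at highest concentration. GI50 = concentration required for 50% inhibition of growth. TGI marks complete inhibition of growth.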 Bounds are passed on as bounds.

Take `Cc1ccc(C)c2c(N=Nc3ccccc3[N+](=O)[O-])c(O)[nH]c12`: the TGI in the assay with SNB-75 CNS, in the assay on ACHN renal, in the assay on SK-MEL-2 melanoma, in the assay with UACC-62 melanoma, in the assay on SK-MEL-28 melanoma and in the assay with MDA-MB-231 breast was more than 100 µM each time. Further, the TGI in the assay on SF-295 CNS, with RXF 393 renal and in the assay with HL-60(TB) leukemia was more than 100 µM in each case.
As for `O=C1N[C@H]2[C@H](O)[C@H](O)[C@@H](O)[C@H](O)[C@@H]2c2cc3c(c(O)c21)OCO3`, the GI50 was 0.257 µM and 1.14 µM in the assay with SNB-75 CNS; 0.266 µM with SK-MEL-2 melanoma; 0.3 µM and 0.36 µM in the assay with HT29 colon; 0.246 µM and 0.412 µM in the assay on UACC-62 melanoma; 0.308 µM and 0.382 µM with SK-MEL-28 melanoma; 0.346 µM and 0.495 µM in the assay on SF-295 CNS. Also, the GI50 in the assay with RXF 393 renal was 0.148 µM and 0.423 µM; with HL-60(TB) leukemia, 0.194 µM and 0.0783 µM. Also, the TGI in the assay with HT29 colon was 3.84 µM and 0.44 µM; in the assay with MDA-MB-231 breast it was 0.091 µM; in the assay with SF-295 CNS, 3.51 µM and 0.352 µM; in the assay on HL-60(TB) leukemia it was 0.331 µM and 0.0744 µM.
Consider `CCN(CC)c1ccc(/C=C/C=C(/C#N)C(N)=S)cc1`, for which the GI50 in the assay on SNB-75 CNS was 20.4 µM; in the assay on ACHN renal, 24 µM; with SK-MEL-2 melanoma it was 20.9 µM; in the assay on HT29 colon, 2.84 µM; in the assay with UACC-62 melanoma it was 15.2 µM; in the assay on SK-MEL-28 melanoma, 21.2 µM. The GI50 in the assay with MDA-MB-231 breast is 2.11 µM; with SF-295 CNS, 27.6 µM; with HL-60(TB) leukemia it was 2.53 µM. Also, the TGI in the assay with SNB-75 CNS was more than 100 µM; with ACHN renal, more than 100 µM; in the assay on SK-MEL-2 melanoma it was more than 100 µM; in the assay on HT29 colon, 23.9 µM; in the assay with UACC-62 melanoma it was 48.8 µM; in the assay with SK-MEL-28 melanoma it was more than 100 µM. In addition, the TGI with MDA-MB-231 breast is 6.03 µM; in the assay with SF-295 CNS, more than 100 µM; in the assay on HL-60(TB) leukemia it was 18.9 µM.
As to `Nc1nc(-c2cc(-c3cccc4ccccc34)nc(N)n2)cc(-c2cccc3ccccc23)n1`, the TGI with ACHN renal, in the assay with SK-MEL-2 melanoma, in the assay with HT29 colon, in the assay with UACC-62 melanoma, with SK-MEL-28 melanoma and in the assay with MDA-MB-231 breast was more than 100 µM throughout. For the same compound, the TGI in the assay with SF-295 CNS, in the assay on RXF 393 renal and in the assay with HL-60(TB) leukemia was more than 100 µM each time.
With `N#C/C(=C\c1cccc2cnccc12)N1N=NC2C=CC=CC21` (stereo unspecified), the GI50 was 0.184 µM in the assay with SNB-75 CNS; 2.5 µM in the assay on ACHN renal; 4.49 µM in the assay on SK-MEL-2 melanoma; 3.5 µM with HT29 colon; 4.1 µM in the assay on SK-MEL-28 melanoma; 1.94 µM in the assay on MDA-MB-231 breast. In addition, the GI50 with SF-295 CNS was 32.4 µM; in the assay on RXF 393 renal it was 2.35 µM; with HL-60(TB) leukemia it was 3 µM. In addition, the TGI was 3.61 µM in the assay on SNB-75 CNS; more than 100 µM in the assay on ACHN renal; more than 100 µM in the assay on SK-MEL-2 melanoma; more than 100 µM in the assay with HT29 colon; more than 100 µM in the assay with SK-MEL-28 melanoma; 8.05 µM in the assay on MDA-MB-231 breast. In addition, the TGI was more than 100 µM with SF-295 CNS, 6.97 µM in the assay on RXF 393 renal and 24.3 µM in the assay with HL-60(TB) leukemia.
On to `O=S(=O)(NCCO)c1cc[c]([Sb](=[O])([OH])[OH])cc1`, for which the GI50 in the assay with ACHN renal, in the assay with SK-MEL-2 melanoma, with HT29 colon, in the assay with UACC-62 melanoma, in the assay on SK-MEL-28 melanoma and in the assay with MDA-MB-231 breast was more than 100 µM in each case. For the same compound, the GI50 in the assay with SF-295 CNS, in the assay with RXF 393 renal and in the assay with HL-60(TB) leukemia was more than 100 µM in each case. For the same compound, the TGI in the assay with ACHN renal, with SK-MEL-2 melanoma, in the assay on HT29 colon, with UACC-62 melanoma, with SK-MEL-28 melanoma and with MDA-MB-231 breast was more than 100 µM each time. Moreover, the TGI in the assay on SF-295 CNS, in the assay on RXF 393 renal and in the assay with HL-60(TB) leukemia was more than 100 µM in each case.
For the compound `N=C(N)SCc1ccc([N+](=O)[O-])cc1[N+](=O)[O-]`, the GI50 was 19.6 µM with SNB-75 CNS; 8.04 µM with ACHN renal; 4.5 µM in the assay on SK-MEL-2 melanoma; 5.44 µM in the assay with HT29 colon; 11.3 µM in the assay with UACC-62 melanoma; 12 µM in the assay with MDA-MB-231 breast. For the same compound, the GI50 with SF-295 CNS is 31.3 µM; in the assay with RXF 393 renal, 1.38 µM; in the assay on HL-60(TB) leukemia, 3.38 µM. Further, the TGI turned out to be 50.5 µM in the assay on SNB-75 CNS; 21.1 µM in the assay with ACHN renal; 16.6 µM with SK-MEL-2 melanoma; 18.9 µM with HT29 colon; 25.3 µM in the assay on UACC-62 melanoma; 36.6 µM in the assay with MDA-MB-231 breast. In addition, the figures for the TGI in the assay with SF-295 CNS, in the assay on RXF 393 renal and in the assay with HL-60(TB) leukemia were more than 100 µM, 4.13 µM and 17.3 µM, respectively.
For the compound `CCCCN1CCN(c2ccc3nc(-c4ccc5nc(-c6ccc(OCC)c(OCC)c6)[nH]c5c4)[nH]c3c2)CC1`, the GI50 was 0.65 µM in the assay on SNB-75 CNS; 0.922 µM in the assay on ACHN renal; 0.802 µM with HT29 colon; 0.686 µM in the assay with UACC-62 melanoma; 1.01 µM in the assay with SK-MEL-28 melanoma; 1.69 µM with MDA-MB-231 breast. In the assay on HL-60(TB) leukemia, the GI50 was 0.704 µM. In addition, the TGI with SNB-75 CNS turned out to be 2.01 µM; with ACHN renal, 2.12 µM; in the assay on HT29 colon it was 2.97 µM; in the assay on UACC-62 melanoma, 2.18 µM; in the assay on SK-MEL-28 melanoma, 2.22 µM; in the assay on MDA-MB-231 breast, 3.28 µM. In the assay with HL-60(TB) leukemia, this compound gave a TGI of 3.18 µM.
In the case of `C[n+]1c(/C=C/c2ccc(/C=N/NC(=O)c3ccc(C(=O)N/N=C/c4ccc(/C=C/c5cn6ccccc6[n+]5C)cc4)cc3)cc2)cn2ccccc21`, the TGI with SNB-75 CNS, with ACHN renal, in the assay with HT29 colon, in the assay with SK-MEL-28 melanoma, in the assay with MDA-MB-231 breast and with SF-295 CNS was more than 100 µM each time. Also, the TGI with HL-60(TB) leukemia amounted to 67.4 µM.
In the case of `COc1ccc2[nH]c(O)c(/C=c3/ccc4c(c3)N=C(c3ccc(F)cc3)N=4)c2c1`, the GI50 in the assay on SNB-75 CNS is 1.55 µM; in the assay with SK-MEL-2 melanoma it was 5.72 µM; with HT29 colon it was 3.62 µM; with UACC-62 melanoma, 6.11 µM; in the assay on SK-MEL-28 melanoma, 4.34 µM; in the assay with MDA-MB-231 breast, 2.25 µM. In addition, the GI50 was 7.33 µM in the assay with SF-295 CNS, 1.95 µM in the assay with RXF 393 renal and 28.3 µM in the assay on HL-60(TB) leukemia. In addition, the TGI in the assay on SNB-75 CNS is 3.6 µM; with SK-MEL-2 melanoma, 44.8 µM; in the assay on HT29 colon, 16.8 µM; in the assay with UACC-62 melanoma it was more than 100 µM; in the assay with SK-MEL-28 melanoma, 28.8 µM; in the assay on MDA-MB-231 breast, 6.04 µM. For the same compound, the results for the TGI with SF-295 CNS, with RXF 393 renal and with HL-60(TB) leukemia were more than 100 µM, 4.06 µM and more than 100 µM, respectively.
